Read-outs that look alike come from different tables or passages of the source.
Columns and labels:
[1] = Stability of solutions (control solution and sample solution at room temperature); format: physicochemical
Method: Control stock solution: 7.5 mg of the nitrosamine compound P08 (purity≥98%) was weighed into a 100 ml volumetric flask, dissolved and diluted with acetonitrile to volume (volumetric solution 1A). 1.0 mL of the volumetric solution 1A was added into a 100 ml volumetric flask, and diluted with acetonitrile to volume (volumetric solution 1B). 1.0 mL of the volumetric solution 1B was added into a 20 ml volumetric flask, and diluted with acetonitrile to volume to obtain the control stock solution.
Control solution: 1.0 mL of the control stock solution was added into a 10 ml volumetric flask, and diluted with acetonitrile to volume to obtain the control solution.
Sample solution: 10 varenicline tartrate tablets were placed in a 10 ml volumetric flask, added with 3 mL of purified water and 3 mL of acetonitrile, sonicated for 30s, then diluted with acetonitrile to volume and mixed evenly.
The control solution and the sample solution were placed at room temperature, then injected for analysis at intervals of 0, 2, 4, 6, 8, 10, 12 hours, and the peak area ratio of each time point to the zero point (i.e., peak area change rate) was calculated.

[2] = test system: Salmonella Typhimurium TA1535; format: cell-based
Method: Salmonella Typhimurium TA97a, TA98, TA100, TA102, and TA1535 from MOLT OX, USA, were purchased from Shanghai Bioplus Biotech. Co., Ltd. The test was carried out using Salmonella typhimurium strains that were identified as meeting the requirements.
(§1) Rat liver S9 from Shanghai Bioplus Biotech. Co., Ltd.
(§2) The experiments were performed using the plate incorporation method.
(§3) Dose selection: The experiments were performed using 5 mg, 2.5 mg, 1.25 mg, 0.625 mg, 0.3125 mg, and 0.15625 mg per dish.
Test substance preparation: nitrosamine impurity compound P08 was prepared to a solution of 50 mg/ml with dimethyl-sulfoxide, and diluted with dimethyl-sulfoxide to give the solutions of 25 mg/ml, 12.5 mg/ml, 6.25 mg/ml, 3.125 mg/ml, and 1.5625 mg/ml successively.
(§4) 0.1 ml of frozen bacterial solutions TA97a, TA98, TA100, TA102 and TA1535 were inoculated into the 10 ml nutrient broth mediums respectively, and cultured at 37° C. (100/min) for 10 h with shaking (100 times/min). 2.0 ml of top layer medium containing 0.5 mmol/L histidine −0.5 mmol/L biotin was dispensed into test tubes, sterilized by 0.103 MPa for 20 min, and kept in a water bath at 50° C. Then, 0.1 ml of the test substance solution, 0.5 ml of the S9 mixture (when metabolic activation was required) and 0.1 ml of the bacterial solution were added into each tube successively, mixed sufficiently, and poured into the bottom layer agar plates quickly. Then, the plates were turned to distribute even. After being placed horizontally for condensation and solidification, the plates were inverted and incubated in an incubator at 37° C. for 48 h, and the number of reverse mutation colonies per dish was counted. Three parallel plates of each dose were made, containing the spontaneous reverse mutation group, the solvent control group and the positive control group.
(§5) The data were expressed as means±standards deviation (x±s), and SPSS 19.0 was used for calculation of data analysis.
(§6) If the test substance tested by the above test strain is negative both with and without S9, then the test substance is determined to be mutagenic negative.

[3] = test system: Salmonella Typhimurium TA98; test: Ames test, plate incorporation method, TA98; format: cell-based
Method: (§7) Salmonella Typhimurium TA97a, TA98, TA100, TA102, and TA1535 from MOLT OX, USA, were purchased from Shanghai Bioplus Biotech.
as §1, §2, §3, §4, §5, §6

[4] = test system: Salmonella Typhimurium TA97a; test: Ames test, plate incorporation method, TA97a; format: cell-based
Method: as §7, §1, §2, §3, §4, §5, §6

Tetranychus cinnabarinus = test: Leaf-disc spraying method, insecticidal activity; format: in vivo; conditions: 500 mg/L, spray 2.5 mL, investigated after 24 h, blank control 0%, read-out: mortality rate
Method: The bactericidal or insecticidal activity of the nitrosamine impurity compound P08 was determined according to the existing technical standards or specifications (e.g., Chinese agricultural industry standard NY/T 1156.4-2006, pesticides guidelines for laboratory bioactivity tests, bactericide, part 4: potted plant test for fungicide control of powdery mildew on wheat; Chinese agricultural industry standard NY/T 1156.5-2006, pesticides guidelines for laboratory bioactivity tests, bactericide, part 5: detached leaf test for fungicide inhibition of Rhizoctonia solani on faba bean; Chinese agricultural industry standard […], pesticides guidelines for laboratory bioactivity tests, insecticide, part 6: the immersion test for insecticide activity; Chinese agricultural industry standard NY/T 1154.9-2008, pesticides guidelines for laboratory bioactivity tests, insecticide, part 9: spraying method).
According to the Chinese agricultural industry standard NYT 1154.13-2008, pesticides guidelines for laboratory bioactivity tests, insecticide, part 13: leaf-disc spraying method, the Tetranychus cinnabarinus were inoculated on a leaf-disc of faba bean as the biological test materials. […]

Salmonella typhimurium = test: Ames test, overall result determination; format: cell-based; conditions: in the presence and absence of metabolic activation system
Method: Whether nitrosamine impurity compound P08 is genotoxic (capable of mutagenicity or carcinogenesis) was detected.
as §6

SMILES: O=NN1CC2CC(C1)c1cc3nccnc3cc12 [P08]
- peak area change rate within 12 hours ([1]; control solution (acetonitrile)): < 12%
- peak area change rate within 12 hours ([1]; sample solution (tablets in water/acetonitrile)): < 3.5%
- number of reverse mutation colonies per dish (x ± s) ([2]; TA1535, +S9, 156.25 μg/dish): 21 ± 0
- number of reverse mutation colonies per dish (x ± s) ([2]; TA1535, +S9, 312.5 μg/dish): 20 ± 3
- number of reverse mutation colonies per dish (x ± s) ([2]; TA1535, +S9, 625 μg/dish): 35 ± 7
- number of reverse mutation colonies per dish (x ± s) ([2]; TA1535, +S9, 1250 μg/dish): 34 ± 3
- number of reverse mutation colonies per dish (x ± s) ([2]; TA1535, +S9, 2500 μg/dish): 38 ± 5
- number of reverse mutation colonies per dish (x ± s) ([2]; TA1535, +S9, 5000 μg/dish): 46 ± 6
- number of colonies relative to that of the solvent control ([2]; TA1535, no S9, 625 μg/dish): more than twice
- number of colonies relative to that of the solvent control ([2]; TA1535, with S9, 5000, 2500, 1250 and 625 μg/dish, dose-response relationship): more than twice
- number of reverse mutation colonies per dish (x ± s) ([2]; TA1535, −S9, 156.25 μg/dish): 23 ± 2
- number of reverse mutation colonies per dish (x ± s) ([2]; TA1535, −S9, 312.5 μg/dish): 36 ± 1
- number of reverse mutation colonies per dish (x ± s) ([2]; TA1535, −S9, 625 μg/dish): 42 ± 4
- number of reverse mutation colonies per dish (x ± s) ([2]; TA1535, −S9, 1250 μg/dish): 18 ± 2
- number of reverse mutation colonies per dish (x ± s) ([2]; TA1535, −S9, 2500 μg/dish): 28 ± 2
- number of reverse mutation colonies per dish (x ± s) ([2]; TA1535, −S9, 5000 μg/dish): 20 ± 2
- number of reverse mutation colonies per dish (x ± s) ([3]; TA98, +S9, 156.25 μg/dish): 33 ± 6
- number of reverse mutation colonies per dish (x ± s) ([3]; TA98, +S9, 312.5 μg/dish): 34 ± 1
- number of reverse mutation colonies per dish (x ± s) ([3]; TA98, +S9, 625 μg/dish): 35 ± 2
- number of reverse mutation colonies per dish (x ± s) ([3]; TA98, +S9, 1250 μg/dish): 41 ± 6
- number of reverse mutation colonies per dish (x ± s) ([3]; TA98, +S9, 2500 μg/dish): 59 ± 4
- number of reverse mutation colonies per dish (x ± s) ([3]; TA98, +S9, 5000 μg/dish): 53 ± 6
- number of colonies relative to that of the solvent control ([3]; TA98, adding S9, 2500 μg/dish): more than twice
- number of reverse mutation colonies per dish (x ± s) ([3]; TA98, −S9, 156.25 μg/dish): 29 ± 2
- number of reverse mutation colonies per dish (x ± s) ([3]; TA98, −S9, 312.5 μg/dish): 27 ± 3
- number of reverse mutation colonies per dish (x ± s) ([3]; TA98, −S9, 625 μg/dish): 28 ± 2
- number of reverse mutation colonies per dish (x ± s) ([3]; TA98, −S9, 1250 μg/dish): 30 ± 3
- number of reverse mutation colonies per dish (x ± s) ([3]; TA98, −S9, 2500 μg/dish): 31 ± 3
- number of reverse mutation colonies per dish (x ± s) ([3]; TA98, −S9, 5000 μg/dish): 32 ± 2
- number of reverse mutation colonies per dish (x ± s) ([4]; +S9, 156.25 μg/dish): 209 ± 16
- number of reverse mutation colonies per dish (x ± s) ([4]; +S9, 312.5 μg/dish): 248 ± 13
- number of reverse mutation colonies per dish (x ± s) ([4]; +S9, 625 μg/dish): 242 ± 17
- number of reverse mutation colonies per dish (x ± s) ([4]; +S9, 1250 μg/dish): 279 ± 5
- number of reverse mutation colonies per dish (x ± s) ([4]; +S9, 2500 μg/dish): 297 ± 8
- number of reverse mutation colonies per dish (x ± s) ([4]; +S9, 5000 μg/dish): 310 ± 19
- number of reverse mutation colonies per dish (x ± s) ([4]; −S9, 156.25 μg/dish): 158 ± 11
- number of reverse mutation colonies per dish (x ± s) ([4]; −S9, 312.5 μg/dish): 175 ± 6
- number of reverse mutation colonies per dish (x ± s) ([4]; −S9, 625 μg/dish): 175 ± 12
- number of reverse mutation colonies per dish (x ± s) ([4]; −S9, 1250 μg/dish): 160 ± 15
- number of reverse mutation colonies per dish (x ± s) ([4]; −S9, 2500 μg/dish): 165 ± 10
- number of reverse mutation colonies per dish (x ± s) ([4]; −S9, 5000 μg/dish): 159 ± 5
- mortality at 500 µg/mL (Tetranychus cinnabarinus): 19.6%
- mutagenicity determination (Ames test) (Salmonella typhimurium): mutagenic positive

Reference: patent US20240374609A1, “NITROSAMINE IMPURITY, VARENICLINE PHARMACEUTICAL COMPOSITION CAPABLE OF REDUCING GENERATION OF NITROSAMINE IMPURITIES AND PREPARATION AND USE THEREOF” (VIWIT PHARMACEUTICALCO., LTD., priority 2021, published 2024)
